Measured values reported in US20160361255A1, “Peptide Nanotubes for Slow Release of Drugs at Peripheral Nerve Injury” (The University of Toledo, priority 2015, published 2016).

How the values were obtained:
[1] = tested on: differentiated dopaminergic PC12 cells; assay: LIVE/DEAD viability of differentiated PC12 cells exposed to 6-OHDA; assay type: cell-based; conditions: 1 μM for 6 h, then 30 μM 6-OHDA for 24 h
Description: Differentiated dopaminergic PC12 cells and primary mouse embryonic cortical neurons (E17, DIV14) were treated with mock (H2O) or 1 μM of dextran, alginate, HA-GAGR or midi-GAGR for 6 h and insulated by oxidative stressors (30 μM 6-OHDA [PC12] and 10 μM amyloid β peptide [cortical neurons]) for 24 h. The viability of neurons was assessed using LIVE/DEAD Viability/Cytotoxicity Assay Kit (Invitrogen).

[2] = tested on: phosphorylated CREB; assay: Nuclear phospho-CREB immunostaining in PC12 cells; assay type: cell-based; conditions: 1 μM, 24 h
Description: (§1) Differentiated PC12 cells and mouse embryonic cortical neurons (E17, DIV14) were treated with mock, dextran, alginate, HA-GAGR or midi-GAGR (1 μM) for 24 h and fixed in 3.7% paraformaldehyde. The fixed cells and neurons were immunostained with antibodies against α-tubulin and phospho-CREB (p-CREB) along with DAPI (nucleus).

[3] = tested on: phosphorylated CREB; assay: Nuclear phospho-CREB immunostaining in cortical neurons; assay type: cell-based, mouse; conditions: 1 μM, 24 h
Description: as §1

[4] = ABTS Antioxidant Assay Kit; assay type: biochemical; conditions: 10 μM
Description: The antioxidant capacity of midi-GAGR was measured using ABTS Antioxidant Assay Kit (Zenbio Co.). […] This was slightly stronger than antioxidant capacity of LA-GAGR (10 μM LA-GAGR=15.4 μM Trolox) (Table 2)

[5] = even at high doses (~200 mg/kg); cited from earlier work
[6] = cited from earlier work
[7] = tested on: rat embryonic cortical neurons; assay: Scholl ring analysis of cortical neurons exposed to 4-HNE; assay type: cell-based; conditions: pretreatment 2 days, then 25 μM 4-HNE 1 day
Description: Rat embryonic cortical neurons were treated with mock (FIG. 11C), 1 μM HA-GAGR (high acyl gellan gum), 1 μM dextran, 100 μM ascorbate or 1 μM midi-GAGR (FIG. 11D) for 2 days and then with 25 μM 4-hydroxynonenal (4-HNE), a lipid peroxide, for 1 day. After fixation, neurons were immunostained with anti-synaptophysin antibody (green) and rhodamine-phalloidin (actin: red). Scholl ring analysis was performed. Neurons pre-treated with mock, dextran or ascorbate lost neuritis (neuritic atrophy) in the presence of 4-HNE.

| Substance | 6-OHDA-induced cell death [1] | increase of nuclear p-CREB levels [2] | increase of nuclear p-CREB levels [3] | antioxidant capacity [4] | side effects in humans [5] | oral bioavailability [6] | neurites (neuritic atrophy) in the presence of 4-HNE [7] |
| --- | --- | --- | --- | --- | --- | --- | --- |
| alginate | did not | not significantly increased | not significantly increased | – | – | – | – |
| low acyl gellan gum [LA-GAGR] | – | – | – | 15.4 μM Trolox | few side effects | good | – |
| high acyl gellan gum [HA-GAGR] | – | not significantly increased | not significantly increased | – | – | – | formed neuritis, but less branched |
| dextran | did not | not significantly increased | not significantly increased | – | – | – | lost neuritis |
